Experimental data from ChEMBL document CHEMBL3352482, “Discovery of potent N-(isoxazol-5-yl)amides as HSP90 inhibitors” (Eur J Med Chem, 2014).
Activity calls are given as the source filed them. The calls are words filed in the database; no cut-off is given here.

Tests used:
CYP1A2 = target: T1, CYP1A2 (Homo sapiens, UniProt P05177); assay: Inhibition of CYP1A2 in human liver microsomes at 10 uM after 20 mins
T1 sequence (P05177 whole entry): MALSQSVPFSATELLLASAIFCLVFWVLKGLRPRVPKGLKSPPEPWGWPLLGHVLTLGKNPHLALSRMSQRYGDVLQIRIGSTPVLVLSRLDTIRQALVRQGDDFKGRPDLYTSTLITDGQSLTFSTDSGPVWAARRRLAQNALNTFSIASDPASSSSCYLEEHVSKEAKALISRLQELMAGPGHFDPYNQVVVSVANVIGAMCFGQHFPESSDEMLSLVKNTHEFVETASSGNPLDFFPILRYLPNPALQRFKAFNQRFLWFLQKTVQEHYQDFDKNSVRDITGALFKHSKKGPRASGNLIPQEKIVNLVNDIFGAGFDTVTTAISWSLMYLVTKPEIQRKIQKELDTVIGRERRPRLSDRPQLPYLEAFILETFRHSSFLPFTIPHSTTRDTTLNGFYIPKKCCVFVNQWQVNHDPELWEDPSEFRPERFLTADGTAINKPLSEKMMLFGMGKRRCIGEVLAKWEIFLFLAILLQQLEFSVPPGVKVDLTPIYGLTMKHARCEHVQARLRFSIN

CYP2C9 = CYP2C9 (Homo sapiens, UniProt P11712); assay: Inhibition of CYP2C9 in human liver microsomes at 10 uM after 20 mins
Sequence of CYP2C9 (P11712 whole entry): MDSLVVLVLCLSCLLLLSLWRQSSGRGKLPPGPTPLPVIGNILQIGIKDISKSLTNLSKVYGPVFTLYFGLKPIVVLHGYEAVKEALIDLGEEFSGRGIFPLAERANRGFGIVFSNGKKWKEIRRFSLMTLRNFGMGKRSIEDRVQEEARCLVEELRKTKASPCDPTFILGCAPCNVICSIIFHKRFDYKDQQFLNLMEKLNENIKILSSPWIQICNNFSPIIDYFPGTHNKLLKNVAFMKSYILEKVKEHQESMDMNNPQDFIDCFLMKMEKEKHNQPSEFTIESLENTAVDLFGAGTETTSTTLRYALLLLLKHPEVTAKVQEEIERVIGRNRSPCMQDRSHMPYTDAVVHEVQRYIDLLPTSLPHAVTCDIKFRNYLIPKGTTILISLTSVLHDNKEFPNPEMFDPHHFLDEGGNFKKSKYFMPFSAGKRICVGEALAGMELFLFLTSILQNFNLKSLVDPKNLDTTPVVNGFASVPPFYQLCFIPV

[1] = Half life in mouse at 50 mg/kg, po; format: ADME, organism-based; design: dose 50 mg/kg, route oral; conditions: in vivo
[2] = Oral bioavailability in mouse at 50 mg/kg; format: ADME, organism-based; conditions: in vivo
[3] = Half life in mouse at 10 mg/kg, iv; format: ADME, organism-based; design: dose 10 mg/kg, route intravenous; conditions: in vivo
hERG (KCNH2) = hERG (KCNH2) (Homo sapiens, UniProt Q12809); assay: Inhibition of human ERG at 1 uM
Sequence of hERG (KCNH2) (Q12809 whole entry): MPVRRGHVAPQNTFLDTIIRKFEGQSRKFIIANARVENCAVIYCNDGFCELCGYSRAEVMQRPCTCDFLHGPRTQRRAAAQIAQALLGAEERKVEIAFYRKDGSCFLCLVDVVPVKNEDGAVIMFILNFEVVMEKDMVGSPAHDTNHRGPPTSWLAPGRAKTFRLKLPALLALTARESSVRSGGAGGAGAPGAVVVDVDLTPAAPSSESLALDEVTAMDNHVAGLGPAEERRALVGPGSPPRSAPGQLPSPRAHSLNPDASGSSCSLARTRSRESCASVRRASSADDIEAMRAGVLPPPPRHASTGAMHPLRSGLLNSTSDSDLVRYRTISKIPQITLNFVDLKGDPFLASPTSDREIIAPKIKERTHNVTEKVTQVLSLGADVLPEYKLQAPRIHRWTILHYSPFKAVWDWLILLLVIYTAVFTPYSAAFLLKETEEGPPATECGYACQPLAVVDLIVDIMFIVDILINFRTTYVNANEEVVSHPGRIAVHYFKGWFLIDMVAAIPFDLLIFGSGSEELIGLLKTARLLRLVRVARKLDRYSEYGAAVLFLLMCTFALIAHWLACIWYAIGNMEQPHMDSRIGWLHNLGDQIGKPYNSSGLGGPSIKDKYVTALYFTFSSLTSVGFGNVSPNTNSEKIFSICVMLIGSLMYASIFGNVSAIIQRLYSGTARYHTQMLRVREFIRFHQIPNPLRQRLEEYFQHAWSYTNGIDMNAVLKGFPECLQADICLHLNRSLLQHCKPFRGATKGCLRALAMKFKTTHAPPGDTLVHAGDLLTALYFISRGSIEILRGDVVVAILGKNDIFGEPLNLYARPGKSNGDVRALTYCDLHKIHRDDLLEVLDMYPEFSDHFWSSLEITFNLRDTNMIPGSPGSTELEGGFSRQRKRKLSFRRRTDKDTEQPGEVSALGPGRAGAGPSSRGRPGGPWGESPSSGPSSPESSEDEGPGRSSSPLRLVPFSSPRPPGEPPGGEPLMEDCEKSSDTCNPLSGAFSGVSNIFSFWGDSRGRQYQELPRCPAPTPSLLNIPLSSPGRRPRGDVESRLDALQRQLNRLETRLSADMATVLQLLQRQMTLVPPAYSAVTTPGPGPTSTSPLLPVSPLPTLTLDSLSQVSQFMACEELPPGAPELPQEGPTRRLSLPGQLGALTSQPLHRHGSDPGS

[4] = Mean residence time in mouse at 10 mg/kg, iv; format: ADME, organism-based; design: dose 10 mg/kg, route intravenous; conditions: in vivo
[5] = Intrinsic clearance in human liver microsomes assessed per mg protein; format: ADME; conditions: read-out: CLH
A549 = assay: Growth inhibition of human A549 cells after 72 hrs by SRB assay; format: functional; conditions: A549, 72 h
[6] = Growth inhibition of human SMMC7721 cells after 72 hrs by SRB assay; format: functional; conditions: SMMC-7721, 72 h
[7] = target: T2, Heat shock protein HSP 90-alpha (Homo sapiens, UniProt P07900); conditions: U-87MG ATCC
Description: Inhibition of HSP90alpha in human U87MG cells assessed as increase in HSP27 level at 50 to 200 nM after 24 hrs by western blotting

[8] = Growth inhibition of human HCC827 cells after 72 hrs by SRB assay; format: functional; conditions: HCC827, 72 h
[9] = Growth inhibition of human 786-O cells after 72 hrs by SRB assay; format: functional; conditions: 786-0, 72 h
[10] = target: T2, Heat shock protein HSP 90-alpha
Description: Inhibition of HSP90alpha (unknown origin) after 16 hrs by FP enzymatic assay

MDA-MB-231 = assay: Growth inhibition of human MDA-MB-231 cells after 72 hrs by SRB assay; format: functional; conditions: MDA-MB-231, 72 h
[11] = target: T2, Heat shock protein HSP 90-alpha; conditions: U-87MG ATCC; remark: listed apart in the source
Description: Inhibition of HSP90alpha in human U87MG cells assessed as decrease in p-Erk level at 50 to 100 nM after 24 hrs by western blotting

NCI-H596 = assay: Growth inhibition of human NCI-H596 cells after 72 hrs by SRB assay; format: functional; conditions: NCI-H596, 72 h
HCC1937 = assay: Growth inhibition of human HCC1937 cells after 72 hrs by SRB assay; format: functional; conditions: HCC1937, 72 h
[12] = Growth inhibition of human U87MG cells after 72 hrs by SRB assay; format: functional, U-87MG ATCC; conditions: U-87 MG
SK-MEL-28 = assay: Growth inhibition of human SK-MEL-28 cells after 72 hrs by SRB assay; format: functional; conditions: SK-MEL-28, 72 h
Cytochrome P450 3A4 = Cytochrome P450 3A4 (Homo sapiens, UniProt P08684); assay: (§1) Inhibition of CYP3A4 in human liver microsomes at 10 uM after 20 mins; conditions: microsomes, 20 min, 10 µM
Sequence of Cytochrome P450 3A4 (P08684 whole entry): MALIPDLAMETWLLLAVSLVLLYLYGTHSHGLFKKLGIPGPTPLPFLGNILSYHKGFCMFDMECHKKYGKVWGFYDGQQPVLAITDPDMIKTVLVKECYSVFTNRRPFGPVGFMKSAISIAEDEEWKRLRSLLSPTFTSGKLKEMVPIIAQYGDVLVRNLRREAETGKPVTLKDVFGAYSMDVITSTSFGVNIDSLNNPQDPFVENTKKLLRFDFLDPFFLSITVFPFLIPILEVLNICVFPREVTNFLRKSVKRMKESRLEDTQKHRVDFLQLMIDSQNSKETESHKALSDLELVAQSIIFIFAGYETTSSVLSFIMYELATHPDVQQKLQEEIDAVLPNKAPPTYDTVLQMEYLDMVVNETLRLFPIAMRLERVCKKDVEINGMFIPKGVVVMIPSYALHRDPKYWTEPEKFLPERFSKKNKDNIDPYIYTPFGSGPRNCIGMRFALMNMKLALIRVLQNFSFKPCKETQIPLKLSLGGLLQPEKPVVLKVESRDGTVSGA

SW-620 = assay: Growth inhibition of human SW620 cells after 72 hrs by SRB assay; format: functional; conditions: SW-620, 72 h
HeLa = assay: Growth inhibition of human HeLa cells after 72 hrs by SRB assay; format: functional
[13] = Growth inhibition of human HCT116 cells after 72 hrs by SRB assay; format: functional; conditions: HCT-116, 72 h
[14] = Tmax in mouse at 50 mg/kg, po; format: ADME, organism-based; design: dose 50 mg/kg, route oral; conditions: in vivo
SW480 = assay: Growth inhibition of human SW480 cells after 72 hrs by SRB assay; format: functional; conditions: SW480, 72 h
[15] = Mean residence time in mouse at 50 mg/kg, po; format: ADME, organism-based; design: dose 50 mg/kg, route oral; conditions: in vivo
MDA-MB-468 = assay: Growth inhibition of human MDA-MB-468 cells after 72 hrs by SRB assay; format: functional; conditions: MDA-MB-468, 72 h
[16] = Growth inhibition of human OVCAR8 cells after 72 hrs by SRB assay; format: functional; conditions: OVCAR-8, 72 h
[17] = AUC (0 to t) in mouse at 50 mg/kg, po; format: ADME, organism-based; design: dose 50 mg/kg, route oral; conditions: plasma
[18] = AUC (0 to t) in mouse at 10 mg/kg, iv; format: ADME, organism-based; design: dose 10 mg/kg, route intravenous; conditions: plasma
[19] = target: T2, Heat shock protein HSP 90-alpha; conditions: U-87MG ATCC; remark: listed apart in the source
Description: Inhibition of HSP90alpha in human U87MG cells assessed as increase in HSP70 level at 50 to 200 nM after 24 hrs by western blotting

CYP2D6 = CYP2D6 (Homo sapiens, UniProt P10635); assay: Inhibition of CYP2D6 in human liver microsomes at 10 uM after 20 mins
Sequence of CYP2D6 (P10635 whole entry): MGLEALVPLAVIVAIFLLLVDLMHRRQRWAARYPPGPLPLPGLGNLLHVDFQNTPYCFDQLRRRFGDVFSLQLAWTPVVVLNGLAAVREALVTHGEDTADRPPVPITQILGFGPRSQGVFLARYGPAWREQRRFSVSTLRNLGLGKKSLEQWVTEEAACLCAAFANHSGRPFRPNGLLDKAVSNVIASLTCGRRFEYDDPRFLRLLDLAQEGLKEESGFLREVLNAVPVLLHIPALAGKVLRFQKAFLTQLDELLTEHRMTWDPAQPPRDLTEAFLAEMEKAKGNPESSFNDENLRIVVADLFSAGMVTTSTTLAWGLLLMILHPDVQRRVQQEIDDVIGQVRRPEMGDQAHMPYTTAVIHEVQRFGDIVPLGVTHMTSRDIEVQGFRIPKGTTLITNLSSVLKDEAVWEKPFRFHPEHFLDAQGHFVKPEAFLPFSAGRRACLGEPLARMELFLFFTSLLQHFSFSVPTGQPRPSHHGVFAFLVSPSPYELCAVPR

DU-145 = assay: Growth inhibition of human DU145 cells after 72 hrs by SRB assay; format: functional; conditions: DU-145, 72 h
[20] = Intrinsic clearance in rat liver microsomes assessed per mg protein; format: ADME; conditions: read-out: CLH
[21] = target: T2, Heat shock protein HSP 90-alpha; conditions: U-87MG ATCC; remark: listed apart in the source
Description: Inhibition of HSP90alpha in human U87MG cells assessed as decrease in c-Met level at 50 to 100 nM after 24 hrs by western blotting

[22] = Cmax in mouse at 50 mg/kg, po; format: ADME, organism-based; design: dose 50 mg/kg, route oral; conditions: in vivo
[23] = target: T2, Heat shock protein HSP 90-alpha; conditions: U-87MG ATCC; remark: listed apart in the source
Description: Inhibition of HSP90alpha in human U87MG cells assessed as decrease in p-Akt level at 50 to 100 nM after 24 hrs by western blotting

[24] = Antitumor activity against human U87MG cells xenografted in mouse assessed as tumor growth inhibition at 50 mg/kg, iv dosed 3 times per week for 17 consecutive days relative to control; format: functional, U-87MG ATCC
Mus musculus = assay: Toxicity in human U87MG cells xenografted mouse assessed as weight loss at 25 to 50 mg/kg, iv dosed 3 times per week for 17 consecutive days relative to control; format: organism-based, U-87MG ATCC; design: dose 25-50 mg/kg, route intravenous; conditions: in vivo
[25] = Antitumor activity against human U87MG cells xenografted in mouse assessed as tumor growth inhibition at 25 mg/kg, iv dosed 3 times per week for 17 consecutive days relative to control; format: functional, U-87MG ATCC
CYP3A4 = CYP3A4 (Homo sapiens, UniProt P08684); assay: as §1; conditions: human liver microsomes
Sequence of CYP3A4 (P08684 whole entry): as the sequence (P08684 whole entry) above

CC(C)c1cc(-c2noc(NC(=O)C3CC3)c2-c2ccc(CN3CCOCC3)cc2)c(O)cc1O
inhibition at 20 min, 10 µM (CYP1A2): 22%
inhibition at 20 min, 10 µM (CYP2C9): 66%
half-life [1]: 1.06 h
bioavailability [2]: 16.1%
half-life [3]: 1.62 h
inhibition at 1 µM (hERG (KCNH2)): 10.5%
MRT [4]: 1.86 h
microsomal CLint [5]: 112 µL/min/mg
GI50 (A549): 41 nM
GI50 [6]: 46 nM
inhibition [7]: Active
GI50 [8]: 15 nM
GI50 [9]: 24 nM
IC50 [10]: 27 nM
GI50 (MDA-MB-231): 54 nM
inhibition [11]: Active
GI50 (NCI-H596): 166 nM
GI50 (HCC1937): 114 nM
GI50 [12]: 115 nM
GI50 (SK-MEL-28): 90 nM
INH (Cytochrome P450 3A4): Not Active
GI50 (SW-620): 46 nM
GI50 (HeLa): 46 nM
GI50 [13]: 35 nM
Tmax [14]: 4.98 min
GI50 (SW480): 21 nM
MRT [15]: 1.54 h
GI50 (MDA-MB-468): 42 nM
GI50 [16]: 19 nM
AUC(0-t) [17]: 496 ng·h/mL
AUC(0-t) [18]: 615 ng·h/mL
inhibition [19]: Active
inhibition at 20 min, 10 µM (CYP2D6): 79%
GI50 (DU-145): 19 nM
microsomal CLint [20]: 108 µL/min/mg
inhibition [21]: Active
Cmax [22]: 438 ng/mL
inhibition [23]: Active

CC(C)c1cc(-c2noc(NC(=O)C3CC3)c2-c2ccc(CN3CCC(N4CCOCC4)CC3)cc2)c(O)cc1O.Cl
T/C [24]: 18.35%
Activity (Mus musculus): Non-toxic
T/C [25]: 48.28%

CCNC(=O)c1noc(-c2cc(C(C)C)c(O)cc2O)c1-c1ccc(CN2CCOCC2)cc1 [LUMINESPIB]
inhibition at 20 min, 10 µM (CYP1A2): 23%
inhibition at 20 min, 10 µM (CYP2C9): 46%
microsomal CLint [5]: 92 µL/min/mg
T/C [24]: 34.06%
GI50 (A549): 26 nM
inhibition at 20 min, 10 µM (CYP3A4): 12%
inhibition at 20 min, 10 µM (CYP2D6): 30%
microsomal CLint [20]: 180 µL/min/mg
